Results reported in patent US20240181087A1, “COMPOSITION FOR CONTRAST IMAGING OF CANCER” (ASTELLAS PHARMA INC., priority 2021, published 2024).

What was measured:
RenCa cell [1] = assay: near-infrared fluorescence imaging of abdominal cavity, peritoneal cancer mouse model (RenCa, intraperitoneal); type: in vivo; settings: tail vein 12 nmol/kg; laparotomy immediately after administration
Procedure: Metastatic spontaneous renal cell carcinoma line from BALB/c mouse, RenCa cell (5×10^6 cells, purchased from CLS Cell Lines Service GmbH, Eppelheim, Germany) was intraperitoneally inoculated into a mouse (BALB/cCrSlc, SPF, female, 7 weeks old) and the resultant mouse was bred for 14 days to cause peritoneal cancer therein. The mouse (weight: about 20 g) was anesthetized by subcutaneous administration of ketamine (75 mg/kg) and medetomidine (1 mg/kg), and the compound III (12 nmol/kg weight) was administered through the tail vein. Immediately after the administration, laparotomy was conducted to perform near-infrared fluorescence imaging with a near-infrared fluorescence imaging device (pde-neo, manufactured by Hamamatsu Photonics K.K.).

RenCa cell [2] = assay: near-infrared fluorescence imaging of lung, lung cancer-bearing mouse (RenCa, tail vein inoculation); type: in vivo; settings: tail vein 120 nmol/kg; after 10 minutes; excised lung
Procedure: Metastatic spontaneous renal cell carcinoma line from BALB/c mouse, RenCa cell (1×10^6 cells, purchased from CLS Cell Lines Service GmbH, Eppelheim, Germany) was prepared in RPMI-1640 medium (fetal bovine serum free, FUJIFILM Wako Pure Chemical Corporation), the resultant was inoculated in a mouse (BALB/cCrSlc, SPF, female, 7 weeks old) by tail vein administration under anesthesia by subcutaneous administration of ketamine (75 mg/kg) and medetomidine (1 mg/kg), and the resultant mouse was bred for 18 days to cause lung cancer therein. The mouse was anesthetized by subcutaneous administration of ketamine (75 mg/kg) and medetomidine (1 mg/kg), and the compound III (120 nmol/kg weight) was administered through the tail vein. After 10 minutes, the lung was excised to perform near-infrared fluorescence imaging with a near-infrared fluorescence imaging device (pde-neo, manufactured by Hamamatsu Photonics K.K.).

B16F1 (skin cancer cell) = assay: near-infrared fluorescence imaging after administration into tumor, B16F1 skin cancer model; type: in vivo, mouse; settings: 0.02 to 0.05 mL of 1 mg/mL saline, transdermal imaging
Text: A syngeneic tumor transplanted mouse model was created as follows referring to “Gan-Shikkan Model no Sakusei to Riyo (Cancer-Creation and Use of Disease Model)” (Takuro Nakamura, LIC, 2012). • (Breast Cancer) A tumor model was created by breeding a normal Balb/c mouse (weight: about 20 g to 30 g) for 14 days with mouse tumor cell 4T1 subcutaneously administered thereto. • (Colorectal Cancer) A tumor model was created by breeding a normal Balb/c mouse (weight: about 20 g to 30 g) for 14 days with CT26 (colorectal cancer cell) subcutaneously administered thereto. • (Skin Cancer) A tumor model was created by breeding a C57BL/6 mouse (weight: about 15 g to 20 g) for 14 days with B16F1 (skin cancer cell) subcutaneously administered thereto.
Subsequently, to the tumor of each of the model mice, 0.02 to 0.05 mL of a saline containing the compound III or ICG (concentration of the compound III or ICG: 1 mg/mL) was administered, and fluorescence imaging was performed transdermally with a near-infrared fluorescence camera (Fluobeam, manufactured by Fluoptics, http://www.solve-net.com/info/wp-content/uploads/downloads/2013/12/Fluobeam.pdf) (excitation wavelength: 780 nm, detection wavelength: 800 nm or more).

[3] = tested on: renal epithelial cell carcinoma; assay: near-infrared fluorescence imaging of kidney with tumor/pretumor induced with ferric nitrilotriacetate; type: in vivo, rat
Procedure: A kidney cancer […] model was created based on a method reported by Okada et al., (Okada et al., Jpn. Arch. Int. Med., 1982, 29, 485). Specifically, rats (280 g to 320 g) were bred after continuously intraperitoneally administering ferric nitrilotriacetate to the rats for 6 months, and thus, renal epithelial cell carcinoma was induced therein.
Each of the rats was anesthetized by intraperitoneally administering pentobarbital sodium salt, a saline containing the compound III was administered to the tail vein (dose of the compound: 0.75 mg/kg of the rat), and 30 minutes, 3 hours, or 24 hours after the administration, the rat was subjected to laparotomy to perform near-infrared fluorescence imaging of the kidney with a near-infrared fluorescence imaging device (PDE, manufactured by Hamamatsu Photonics K.K.) (FIG. 11). Besides, the kidney having been subjected to the near-infrared fluorescence imaging was excised from the body, and the cross section was subjected to near-infrared fluorescence imaging (FIG. 12). Three rats each were used at each of the above-described timings after the administration, and nine rats were used in total.
Besides, a specimen for microscopic observation was created through ethanol immobilization, section creation, hematoxylin/eosin staining for performing observation in bright field and near-infrared fluorescence (FIG. 13). […] Thus, tumor embedded in surrounding tissues could be detected.

[4] = ferric nitrilotriacetate rat, tail vein 0.75 mg/kg, excised kidney

COC1=C(/C=C/C2=[N+](CCC(=O)NCCCO[C@H]3[C@H]4O[C@H]5[C@H](O)[C@@H](O)[C@@H](O[C@H]6[C@H](O)[C@@H](O)[C@@H](O[C@H]7[C@H](O)[C@@H](O)[C@@H](O[C@H]8[C@H](O)[C@@H](O)[C@@H](O[C@H]9[C@H](O)[C@@H](O)[C@@H](O[C@H]%10[C@H](O)[C@@H](O)[C@@H](O[C@@H]([C@@H]3O)[C@@H](CO)O4)O[C@@H]%10CO)O[C@@H]9CO)O[C@@H]8CO)O[C@@H]7CO)O[C@@H]6CO)O[C@@H]5CO)c3ccc4ccccc4c3C2(C)C)CCC/C1=C\C=C1\N(CCC(=O)NCCCO[C@H]2[C@H]3O[C@H]4[C@H](O)[C@@H](O)[C@@H](O[C@H]5[C@H](O)[C@@H](O)[C@@H](O[C@H]6[C@H](O)[C@@H](O)[C@@H](O[C@H]7[C@H](O)[C@@H](O)[C@@H](O[C@H]8[C@H](O)[C@@H](O)[C@@H](O[C@H]9[C@H](O)[C@@H](O)[C@@H](O[C@@H]([C@@H]2O)[C@@H](CO)O3)O[C@@H]9CO)O[C@@H]8CO)O[C@@H]7CO)O[C@@H]6CO)O[C@@H]5CO)O[C@@H]4CO)c2ccc3ccccc3c2C1(C)C.[Cl-] [compound III, 3-(3-{[3-(cyclomaltoheptaose-21-O-yl)propyl]amino}-3-oxopropyl)-2-{(1E)-2-[(3E)-3-{(2E)-2-[3-(3-{[3-(cyclomaltoheptaose-21-O-yl)propyl]amino}-3-oxopropyl)-1,1-dimethyl-1,3-dihydro-2H-benzo[e]indol-2-ylidene]ethylidene}-2-methoxycyclohexa-1-en-1-yl]ethene-1-yl}-1,1-dimethyl-1H-benzo[e]indol-3-ium chloride]
near-infrared fluorescence from peritoneal cancer site versus normal tissue (RenCa cell [1]): stronger than that from a normal tissue
intensity of near-infrared fluorescence in lung cancer site (RenCa cell [2]): low
retention in tumor (fluorescence imaging) (B16F1 (skin cancer cell)): retained in the tumor
near-infrared fluorescence micro image of kidney tissue section ([3]; ferric nitrilotriacetate rat, near-infrared fluorescence microscope, section 3 hours after administration): strong near-infrared fluorescence was found locally in a non-neoplastic degeneration site, a pre-neoplastic degeneration site, and a neoplastic degeneration site
near-infrared fluorescence macro image of the surface of the kidney having tumor and pretumor ([3]; ferric nitrilotriacetate rat, tail vein 0.75 mg/kg, 30 minutes, 3 hours or 24 hours after administration): strong fluorescence was locally found in a dotted manner
near-infrared fluorescence image of kidney cross section: dotted fluorescence in renal medulla [3, 4]: not observed
near-infrared fluorescence image of kidney cross section: renal cortex [3, 4]: a site exhibiting strong fluorescence in a dotted manner was observed
aspect of dotted strong fluorescence in normal kidney ([3]; normal rat, tail vein 0.75 mg/kg): not observed
